ChEMBL document CHEMBL1146573, “Antioxidant activity of a new capsaicin derivative from Capsicum annuum” (J Nat Prod, 2003)
pIC50: −log10 of the molar value.

Test: Antioxidant activity in egg yolk liposomes assessed as inhibition of ADP/Fe(2+)-induced lipid peroxidation after 15 mins by TBARS method
Type: functional

pIC50	SMILES
< 5.00	COc1cc(CNC(=O)CCCC/C=C/C(C)C)cc(-c2cc(CNC(=O)CCCCCCC(C)C)cc(OC)c2O)c1O
3.60	Cc1c(C)c2c(c(C)c1O)CC[C@@](C)(CCC[C@H](C)CCC[C@H](C)CCCC(C)C)O2 [ALPHA-TOCOPHEROL]
